Key:
Assay type in all cases: cell-based
[1] = target: T1, IKZF1 (Homo sapiens, UniProt Q13422+Q96SW2); experiment: Prolabel quantification of IKZF1 protein levels in GripTite 293 MSR cell line; details: Pro-label assay; for percent IKZF1 protein reduction at 10 µM: 24 h; for DC50: Ikaros degradation, read-out: IKZF1 EC50
T1 construct: expressed in transfected cells
From the text: (§1) Example 18: Prolabel Quantification of IKZF1, GSPT1, or SALL4 protein levels in GripTite™ 293 MSR Cell line
(§2) The Prolabel system from DiscoverX was used to develop high-throughput and quantitative assays to measure changes in IKZF1, GSPT1, and SALL4 protein levels in response to compounds. The prolabel tag is derived from the alpha fragment of beta galactosidase and has the following protein sequence: mssnslavvlgrrdwenpgvtglnrlaahppfaswrnseeartdrpsqqlrsinge (SEQ ID NO. 1). The complementary fragment of beta-galactosidase (from DiscoverX), is added to the prolabel tag to form an active beta galactosidase enzyme whose activity can be precisely measured. In this way, the levels of a fusion protein with the prolabel tag can be quantified in cell lysates.
(§3) Lentiviral vectors, based on the Invitrogen pLenti6.2/V5 DEST backbone, were constructed that placed the prolabel tag upstream of IKZF1, GSPT1, or SALL4 and expressed the fusion protein from a CMV promoter.
(§4) To ensure moderate and consistent expression of the prolabel fusion proteins across all cells in the population, stable cell lines were constructed from cells expressing a single copy of the construct. Lentivirus packaged with the constructs was made using the Virapower kit from Invitrogen. Strongly adherent 293GT cell, GripTite 293 MSR cells from Thermo Fisher Scientific (Catalog number: R79507), were infected with the virus at low multiplicity of infection and selected by 5 μg/mL blasticidin for 2 weeks.
(§5) The levels of prolabel tagged fusion proteins in compound treated cell lines were measured as follows:
(§6) Day 1, Cells were diluted to 1.0×10^6 cells/mL in normal growth medium. 17.5 μL of cells were plated in each well of a solid white 384 well plate. Plates were incubated overnight in a 37° C. tissue culture incubator.
(§7) Day 2, Serial dilutions of compounds were made in 384 well plates from 10 mM stocks. 15 μL of DMSO was added to each well of a 384 well plate. In the first column, 15 μL of stock compound was added. The solution was mixed and 15 μL was transferred to the next column. This was repeated until 20 two-fold dilutions were prepared. 2.5 μL of the diluted compounds were transferred into 60 μL of cell culture medium in another 384 well plate, and mixed well. 2.5 μL of this mixture was added to the plated cells. The final DMSO concentration was 0.5% and the highest concentration of compound was 50 μM. Plates were incubated overnight (e.g., about 14 h, 18 h, or 24 h) in a 37° C. tissue culture incubator.
(§8) Day 3, Plates were removed from the incubator and allowed to equilibrate at room temperature for 30 minutes. Prolabel substrate (DiscoverX PathHunter Prolabel Detection Kit, User manual: 93-0180) was added as described by the manufacturers protocols. Plates were incubated at room temperature for three hours and luminescence was read using an Envision reader (Perkin Elmer) Data was analyzed and visualized using the Spotfire software package.

[2] = target: T2, SALL4 (Homo sapiens, UniProt Q96SW2+Q9UJQ4); experiment: Prolabel quantification of SALL4 protein levels in GripTite 293 MSR cell line; details: Pro-label assay
T2 construct: expressed in transfected cells
T2 sequence (Q9UJQ4 whole entry, species assumed): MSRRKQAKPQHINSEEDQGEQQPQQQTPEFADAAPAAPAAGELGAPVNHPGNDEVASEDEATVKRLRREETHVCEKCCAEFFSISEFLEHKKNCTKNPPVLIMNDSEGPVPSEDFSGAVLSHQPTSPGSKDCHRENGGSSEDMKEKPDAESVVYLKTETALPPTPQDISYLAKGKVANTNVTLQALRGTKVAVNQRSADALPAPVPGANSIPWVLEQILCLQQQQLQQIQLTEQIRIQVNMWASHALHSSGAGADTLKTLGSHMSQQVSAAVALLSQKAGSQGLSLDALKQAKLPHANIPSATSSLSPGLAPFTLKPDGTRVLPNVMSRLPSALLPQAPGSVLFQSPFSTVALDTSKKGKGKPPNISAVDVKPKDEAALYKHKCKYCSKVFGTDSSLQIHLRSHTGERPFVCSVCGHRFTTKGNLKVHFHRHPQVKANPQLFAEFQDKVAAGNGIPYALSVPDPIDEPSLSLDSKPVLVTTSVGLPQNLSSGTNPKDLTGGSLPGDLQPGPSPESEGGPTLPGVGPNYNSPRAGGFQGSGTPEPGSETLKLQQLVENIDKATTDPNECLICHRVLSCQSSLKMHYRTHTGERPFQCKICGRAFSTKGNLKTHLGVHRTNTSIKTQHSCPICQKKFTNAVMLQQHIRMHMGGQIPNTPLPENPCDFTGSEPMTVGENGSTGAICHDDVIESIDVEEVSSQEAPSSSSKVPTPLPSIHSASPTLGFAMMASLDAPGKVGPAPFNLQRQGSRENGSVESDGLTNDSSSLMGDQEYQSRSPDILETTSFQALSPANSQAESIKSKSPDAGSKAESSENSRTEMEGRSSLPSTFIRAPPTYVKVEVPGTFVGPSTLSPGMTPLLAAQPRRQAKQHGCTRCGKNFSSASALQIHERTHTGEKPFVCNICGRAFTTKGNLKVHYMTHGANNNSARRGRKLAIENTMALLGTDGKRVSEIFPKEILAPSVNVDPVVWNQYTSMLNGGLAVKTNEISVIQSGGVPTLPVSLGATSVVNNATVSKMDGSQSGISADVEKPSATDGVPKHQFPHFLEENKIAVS
T2 sequence (Q96SW2 whole entry, species assumed): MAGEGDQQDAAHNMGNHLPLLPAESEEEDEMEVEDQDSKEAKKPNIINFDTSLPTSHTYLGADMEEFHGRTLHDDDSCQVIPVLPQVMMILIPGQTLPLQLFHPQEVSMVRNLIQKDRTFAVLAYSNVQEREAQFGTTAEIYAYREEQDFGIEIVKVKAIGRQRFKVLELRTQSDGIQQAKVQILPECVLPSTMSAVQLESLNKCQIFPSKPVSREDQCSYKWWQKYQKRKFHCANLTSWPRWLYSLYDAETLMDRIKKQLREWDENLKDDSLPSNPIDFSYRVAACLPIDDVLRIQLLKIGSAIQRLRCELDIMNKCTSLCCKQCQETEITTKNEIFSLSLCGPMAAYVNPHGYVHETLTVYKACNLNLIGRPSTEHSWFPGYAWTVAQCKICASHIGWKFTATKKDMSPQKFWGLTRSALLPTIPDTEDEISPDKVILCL
T2 sequence (Q16531 whole entry partner, species assumed): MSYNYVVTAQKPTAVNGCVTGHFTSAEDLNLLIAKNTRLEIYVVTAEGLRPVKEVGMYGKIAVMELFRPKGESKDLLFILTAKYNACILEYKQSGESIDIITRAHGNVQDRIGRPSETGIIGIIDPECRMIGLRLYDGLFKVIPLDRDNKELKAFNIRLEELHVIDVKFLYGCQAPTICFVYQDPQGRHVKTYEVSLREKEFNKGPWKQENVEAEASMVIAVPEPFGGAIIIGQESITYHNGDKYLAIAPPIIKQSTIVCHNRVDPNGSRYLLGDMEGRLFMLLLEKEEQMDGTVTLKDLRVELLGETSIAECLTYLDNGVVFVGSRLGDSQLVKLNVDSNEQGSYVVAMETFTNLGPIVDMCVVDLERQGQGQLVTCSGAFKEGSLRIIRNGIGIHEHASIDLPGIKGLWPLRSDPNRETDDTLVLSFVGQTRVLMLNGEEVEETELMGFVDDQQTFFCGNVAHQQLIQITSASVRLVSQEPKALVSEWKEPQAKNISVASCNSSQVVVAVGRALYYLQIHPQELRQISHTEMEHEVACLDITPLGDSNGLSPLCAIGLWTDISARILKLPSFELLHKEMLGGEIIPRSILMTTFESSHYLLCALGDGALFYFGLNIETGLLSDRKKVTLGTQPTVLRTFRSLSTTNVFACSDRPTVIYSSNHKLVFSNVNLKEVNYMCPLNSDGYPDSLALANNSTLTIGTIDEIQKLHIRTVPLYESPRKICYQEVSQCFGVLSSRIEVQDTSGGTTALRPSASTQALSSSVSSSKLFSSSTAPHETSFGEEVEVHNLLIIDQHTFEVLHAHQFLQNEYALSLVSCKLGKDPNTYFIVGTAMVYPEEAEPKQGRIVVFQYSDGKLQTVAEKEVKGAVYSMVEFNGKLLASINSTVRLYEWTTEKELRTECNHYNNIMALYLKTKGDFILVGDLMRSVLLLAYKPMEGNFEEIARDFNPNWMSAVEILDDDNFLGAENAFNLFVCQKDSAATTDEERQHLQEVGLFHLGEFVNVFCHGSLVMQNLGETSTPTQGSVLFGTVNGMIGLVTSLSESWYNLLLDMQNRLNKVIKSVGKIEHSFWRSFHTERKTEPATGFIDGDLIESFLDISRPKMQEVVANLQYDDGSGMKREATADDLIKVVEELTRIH
From the text: as §1, §2
Lentiviral vectors, based on the Invitrogen pLenti6.2/V5 DEST backbone, were constructed that placed the prolabel tag upstream of IKZF1, GSPT1, or SALL4 and expressed the fusion protein from a CMV promoter. […]
The levels of prolabel tagged fusion proteins in compound treated cell lines were measured as follows: […]
as §8, with “Prolabel substrate (DiscoverX PathHunter Prolabel Detection Kit, User manual: 93-0180) was added as described by the manufacturers protocols.” left out

[3] = target: T3, GSPT1 (Homo sapiens, UniProt P15170+Q96SW2); experiment: Prolabel quantification of GSPT1 protein levels in GripTite 293 MSR cell line; details: Pro-label assay; for DC50: GSPT1 degradation, read-out: GSPT1 EC50
T3 construct: expressed in transfected cells
T3 sequence (P15170 whole entry, species assumed): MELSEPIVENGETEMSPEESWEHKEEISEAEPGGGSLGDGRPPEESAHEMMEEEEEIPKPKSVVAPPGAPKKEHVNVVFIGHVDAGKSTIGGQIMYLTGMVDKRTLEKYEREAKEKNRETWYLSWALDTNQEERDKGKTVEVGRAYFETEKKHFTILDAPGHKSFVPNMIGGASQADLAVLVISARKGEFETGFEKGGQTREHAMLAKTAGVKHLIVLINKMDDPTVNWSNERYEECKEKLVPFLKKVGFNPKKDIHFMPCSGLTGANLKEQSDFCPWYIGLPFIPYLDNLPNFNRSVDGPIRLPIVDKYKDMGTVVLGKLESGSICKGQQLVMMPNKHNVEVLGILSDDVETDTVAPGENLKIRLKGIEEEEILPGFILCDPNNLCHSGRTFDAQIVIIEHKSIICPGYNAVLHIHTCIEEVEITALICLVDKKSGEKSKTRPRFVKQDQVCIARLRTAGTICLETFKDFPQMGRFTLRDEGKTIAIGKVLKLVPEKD
T3 sequence (Q96SW2 whole entry, species assumed): as the sequence (Q96SW2 whole entry, species assumed) above
T3 sequence (Q16531 whole entry partner, species assumed): as the sequence (Q16531 whole entry partner, species assumed) above
From the text: as §1, §2, §3, §4, §5, §6, §7
as §8, with “Prolabel substrate (DiscoverX PathHunter Prolabel Detection Kit, User manual: 93-0180) was added as described by the manufacturers protocols.” left out

T1 sequence (Q13422 whole entry, species assumed): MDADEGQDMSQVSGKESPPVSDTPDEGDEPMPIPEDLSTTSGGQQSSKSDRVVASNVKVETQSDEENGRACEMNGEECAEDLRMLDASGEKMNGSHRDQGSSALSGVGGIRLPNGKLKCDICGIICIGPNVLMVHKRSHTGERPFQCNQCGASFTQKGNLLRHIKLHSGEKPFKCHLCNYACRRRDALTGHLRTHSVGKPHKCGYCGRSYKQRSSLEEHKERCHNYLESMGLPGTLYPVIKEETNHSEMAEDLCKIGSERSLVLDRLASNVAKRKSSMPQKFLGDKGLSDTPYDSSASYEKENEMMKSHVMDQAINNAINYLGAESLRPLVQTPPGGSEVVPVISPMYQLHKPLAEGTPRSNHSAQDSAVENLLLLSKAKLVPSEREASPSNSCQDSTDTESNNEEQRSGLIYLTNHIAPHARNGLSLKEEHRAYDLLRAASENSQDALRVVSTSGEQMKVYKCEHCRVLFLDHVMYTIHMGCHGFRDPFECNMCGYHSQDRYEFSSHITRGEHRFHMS
T1 sequence (Q96SW2 whole entry, species assumed): as the sequence (Q96SW2 whole entry, species assumed) above
T1 sequence (Q16531 whole entry partner, species assumed): as the sequence (Q16531 whole entry partner, species assumed) above

With `O=C1CCN(c2coc3ccccc23)C(=O)N1` [Compound I-1, 1-(Benzofuran-3-yl)dihydropyrimidine-2,4(1H,3H)-dione] the percent IKZF1 protein reduction at 10 µM [1] was 75% and the DC50 [1] was 57 nM.

`C#Cc1ccc2c(N3CCC(=O)NC3=O)coc2c1` [Compound I-2, 1-(6-Ethynylbenzofuran-3-yl)dihydropyrimidine-2,4(1H,3H)-dione] gave a percent IKZF1 protein reduction at 10 µM [1] greater than 90% and a DC50 [1] of 60 nM.

In the case of `Cc1ccc2occ(N3CCC(=O)NC3=O)c2c1` [Compound I-3, 1-(5-Methylbenzofuran-3-yl)dihydropyrimidine-2,4(1H,3H)-dione], the percent IKZF1 protein reduction at 10 µM [1] is reported as greater than 90% and the DC50 [1] is reported as 16 nM.

`O=C1CCN(c2coc3ccc(I)cc23)C(=O)N1` [Compound I-4, 1-(5-Iodobenzofuran-3-yl)dihydropyrimidine-2,4(1H,3H)-dione] was tested, and the percent IKZF1 protein reduction at 10 µM [1] was 60% and the DC50 [1] was 51 nM.

In the case of `O=C1CCN(c2coc3cc(I)ccc23)C(=O)N1` [Compound I-5, 1-(6-Iodobenzofuran-3-yl)dihydropyrimidine-2,4(1H,3H)-dione], the “SALL4 % protein Reduction at 10 μM, 24 h” value [2] is reported as 60%, the percent IKZF1 protein reduction at 10 µM [1] is reported as greater than 90% and the DC50 [1] is reported as 130 nM.

For `O=C1CCN(c2coc3ccc(NC(=O)Oc4ccccc4)cc23)C(=O)N1` [Compound I-6, Phenyl (3-(2,4-dioxotetrahydropyrimidin-1(2H)-yl)benzofuran-5-yl)carbamate], the percent IKZF1 protein reduction at 10 µM [1] was 75% and the DC50 [1] was 120 nM.

`O=C1CCN(c2cnn3cc(Cl)ccc23)C(=O)N1` [Compound I-7, 1-(6-Chloropyrazolo[1,5-a]pyridin-3-yl)dihydropyrimidine-2,4(1H,3H)-dione] gave a percent IKZF1 protein reduction at 10 µM [1] greater than 90% and a DC50 [1] of 6 nM.

`O=C1CCN(c2cnc3cc(C4=CCN(Cc5ccccc5)CC4)ccn23)C(=O)N1` [Compound I-8, 1-(7-(1-Benzyl-1,2,3,6-tetrahydropyridin-4-yl)imidazo[1,2-a]pyridin-3-yl)dihydropyrimidine-2,4(1H,3H)-dione] showed a percent IKZF1 protein reduction at 10 µM [1] greater than 90% and a DC50 [1] of 41 nM.

`CC(C)(C)c1ccc(C(=O)N2CC=C(c3ccn4c(N5CCC(=O)NC5=O)cnc4c3)CC2)cc1` [Compound I-9, 1-(7-(1-(4-(tert-Butyl)benzoyl)-1,2,3,6-tetrahydropyridin-4-yl)imidazo[1,2-a]pyridin-3-yl)dihydropyrimidine-2,4(1H,3H)-dione] was tested, and the “GSPT1 % protein reduction at 10 μM, 24 h” value [3] was 80% and the DC50 [3] was 170 nM.

For `O=C1CCN(c2cnc3ccc(C4CCN(Cc5ccccc5)CC4)cn23)C(=O)N1` [Compound I-10, 1-(6-(1-Benzylpiperidin-4-yl)imidazo[1,2-a]pyridin-3-yl)dihydropyrimidine-2,4(1H,3H)-dione], the “GSPT1 % protein reduction at 10 μM, 24 h” value [3] was 80%, the DC50 [3] was 170 nM and the “SALL4 % protein Reduction at 10 μM, 24 h” value [2] was 60%.

With `CN(C)CC#Cc1ccc2c(N3CCC(=O)NC3=O)coc2c1` [Compound I-11, 1-(6-(3-(dimethylamino)prop-1-yn-1-yl)benzofuran-3-yl)dihydropyrimidine-2,4(1H,3H)-dione] the percent IKZF1 protein reduction at 10 µM [1] was greater than 90% and the DC50 [1] was 46 nM.

`O=C1CCN(c2coc3cc(C(=O)NCc4ccccc4)ccc23)C(=O)N1` [Compound I-12, N-benzyl-3-(2,4-dioxotetrahydropyrimidin-1(2H)-yl)benzofuran-6-carboxamide] was tested, and the DC50 [1] was greater than 20000 nM.

Molecule `Cc1ccc2c(N3CCC(=O)NC3=O)noc2c1` [Compound I-13, 1-(6-Methylbenzo[d]isoxazol-3-yl)dihydropyrimidine-2,4(1H,3H)-dione] has a percent IKZF1 protein reduction at 10 µM [1] greater than 90% and a DC50 [1] of 6 nM.

`O=C1CCN(c2noc3ccc(Cl)cc23)C(=O)N1` [Compound I-14, 1-(5-Chlorobenzo[d]isoxazol-3-yl)dihydropyrimidine-2,4(1H,3H)-dione] showed a percent IKZF1 protein reduction at 10 µM [1] greater than 90% and a DC50 [1] of 25 nM.

With `Cc1ccc(CCOc2ccc3c(N4CCC(=O)NC4=O)noc3c2)cc1` [Compound I-15, 1-(6-(4-Methylphenethoxy)benzo[d]isoxazol-3-yl)dihydropyrimidine-2,4(1H,3H)-dione] the percent IKZF1 protein reduction at 10 µM [1] was 80% and the DC50 [1] was 630 nM.

`O=c1ccn(-c2cnc3ccc(C4CCN(Cc5ccccc5)CC4)cc3c2)c(=O)[nH]1` [Compound I-16, 1-(6-(1-benzylpiperidin-4-yl)quinolin-3-yl)pyrimidine-2,4(1H,3H)-dione] was tested, and the DC50 [1] was greater than 20000 nM.

`O=c1ccn(-c2cnc3cc(C4=CCN(Cc5ccccc5)CC4)ccn23)c(=O)[nH]1` [Compound I-17, 1-(7-(1-Benzyl-1,2,3,6-tetrahydropyridin-4-yl)imidazo[1,2-a]pyridin-3-yl)pyrimidine-2,4(1H,3H)-dione] showed a percent IKZF1 protein reduction at 10 µM [1] of 80% and a DC50 [1] of 430 nM.

With `O=c1ccn(-c2cnc3cc(Br)ccn23)c(=O)[nH]1` [Compound I-18, 1-(7-Bromoimidazo[1,2-a]pyridin-3-yl)pyrimidine-2,4(1H,3H)-dione] the percent IKZF1 protein reduction at 10 µM [1] was 40%.

— patent US20220363671A1, “GLUE DEGRADERS AND METHODS OF USE THEREOF” (NOVARTIS AG, priority 2019, published 2022)
